Several values for one entry are separate records, joined by “and”; a condition that tells them apart may be missing. Equal entries are not always repeated. Where two headings read alike, the source gives them in different places. Peptide text beside a SMILES is read from it.
How the values were obtained:
[1] = Sensory test: degree of sweetness compared with sucrose (sugar) solution; details: for Degree of sweetness (multiplying power of sweetness): compared with a 4 to 5% sucrose solution
Source text: The derivative of the invention, i.e., the compound and the form of the salt thereof of the invention was proven to have strong sweetness with a quality of sweetness that is similar to sugar, as a result of a sensory test. For example, the degree of sweetness of 2-amino-4,5-dihydroxy-4-(3-indolylmethyl)pentanoic acid (mixture of the (2S,4S) isomer and (2R,4R) isomer at a ratio of 1:1) was about 1250 times as high as that of sugar, and the degree of sweetness of (2R,4R)-2-amino-4-hydroxy-4-ethylcarbamoyl-4-(3-indolylmethyl)butyric acid was about 1600 times as high as that of sugar. […] Structure and results of the sensory test on several synthesized amino acid derivatives (represented by the following formula (1)) are presented in Table 1.

[2] = Stability (half life) in aqueous acidic solution, citrate buffer pH 3, 70° C.; assay type: physicochemical; details: citrate buffer solution of pH=3, at 70° C.
[3] = (2S,4S) isomer derived from natural plant; literature report; cited from earlier work
[4] = compared with a 5% sugar solution

Row | Compound | Degree of sweetness (multiplying power of sweetness) [1] | Degree of sweetness [1, 4] | Degree of sweetness ([1]; sensory test) | half-life [2] [h] | Degree of sweetness [3]
1 | CCNC(=O)[C@@](O)(Cc1c[nH]c2ccccc12)C[C@@H](N)C(=O)O [Compound No. 8, (2R,4R)-2-amino-4-hydroxy-4-ethylcarbamoyl-4-(3-indolylmethyl)butyric acid] | about 1600 | About 1600 times | about 1600 times as high as that of sugar | ~97 | 
2 | Cc1ccc2c(CC(O)(C[C@H](N)C(=O)O)C(=O)O)c[nH]c2c1 (stereo partly drawn) [Compound No. 2, 4-hydroxy-4-(6-methylindole-3-ylmethyl)glutamic acid] | about 650 | About 650 times |  |  | 
3 | CNC(=O)[C@@](O)(Cc1c[nH]c2ccccc12)C[C@@H](N)C(=O)O [Compound No. 7, (2R,4R)-2-amino-4-hydroxy-4-methylcarbamoyl-4-(3-indolylmethyl)butyric acid] | about 200 | About 200 times |  |  | 
4 | N[C@@H](C[C@@](O)(Cc1c[nH]c2ccccc12)C(=O)O)C(=O)O [monatin, (2S,4S)-2-amino-4-carboxy-4-hydroxy-5-(3-indolyl)pentanoic acid] |  |  |  |  | 800 times of sucrose and 1400 times of sucrose
5 | N[C@H](C[C@H](Cc1c[nH]c2ccccc12)C(=O)O)C(=O)O [Compound No. 1, (2R,4S)-2-amino-4-(3-indolyl)methyl pentandioic acid] | about 200 | About 200 times |  |  | 
6 | COC(=O)[C@H](Cc1ccccc1)NC(=O)[C@@H](N)CC(=O)O [aspartame, reference compound] (H-Asp-Phe-OMe) |  |  |  | ~35 | 
7 | NC(CC(O)(CO)Cc1c[nH]c2ccccc12)C(=O)O (mixture of isomers) [Compound No. 3, (2S,4S)- and (2R,4R)-2-amino-4,5-dihydroxy-4-(3-indolylmethyl)pentanoic acid mixture] | about 1250 | About 1250 times | about 1250 times as high as that of sugar |  | 
8 | CCC(O)(Cc1c[nH]c2ccccc12)CC(N)C(=O)O (stereo not drawn) [Compound No. 6, 2-amino-4-hydroxy-4-(3-indolylmethyl)hexanoic acid] | about 500 | About 500 times |  |  | 
9 | NC(CC(O)(CO)Cc1c[nH]c2ccccc12)C(=O)O (mixture of isomers) [Compound No. 4, (2S,4R)- and (2R,4S)-2-amino-4,5-dihydroxy-4-(3-indolylmethyl)pentanoic acid mixture] | about 750 | About 750 times |  |  | 
10 | CC(O)(Cc1c[nH]c2ccccc12)CC(N)C(=O)O (stereo not drawn) [Compound No. 5, 2-amino-4-hydroxy-4-(3-indolylmethyl)pentanoic acid] | about 900 | About 900 times |  |  | 
